The values below come from patent US20240401144A2, “PRIMER-PROBE COMPOSITION, KIT, AND DETECTION METHOD” (ASCENTAWITS PHARMACEUTICALS, LTD., priority 2021, published 2024).

Assay [1] deals with hepatocellular carcinoma cell lines. Put plainly: Ex vivo proliferation assay, group of hepatocellular carcinoma cell lines (summary). The format is cell-based, human. The procedure: (§1) Exponentially growing cells were inoculated. After 24 h, the test compound OBI-3424 was added. After addition of the test compound OBI-3424, plates were incubated in a standard tissue incubator at 37° C. for the indicated hours. At the end of the experiment, viable cells were detected using the CellTiter Glo (CTG) assay kit or AlamarBlue. Drug concentrations (IC50) resulting in 50% growth inhibition relative to untreated control were calculated using XLfit (IDBS, Boston, MA) or Prism 6 (GraphPad, San Diego, CA).
(§2) After exposing the hepatocellular carcinoma cell lines to compound OBI-3424 for 96 h and exposing the NSCLC cell lines to compound OBI-3424 for 72 h, the IC50 value was determined by ex vivo proliferation assay, and the expression of AKR1C3 protein in hepatocellular carcinoma cell lines was determined by Western blotting (tubulin was used as loading control). The expression data of AKR1C3 RNA in the hepatocellular carcinoma cell lines and in the NSCLC cell lines were from CrownBio database (https://db.crownbio.com/Crownbio/OncoExpress_Login.aspx).
On the other hand, cells expressing low AKR1C3 were less sensitive to OBI-3424, where IC50 values were higher than 1000 nM.

For assay [2], the system named is NCI-H1563 NSCLC cell line. The assay can be described thus: Ex vivo proliferation assay, 72 h exposure. The note with it: Homo sapiens; NCI-H1563, 72 h of exposure; read-out: 3424 IC50. The format is cell-based. The procedure: as §1, §2
Assay [3] relates to NCI-H522 NSCLC cell line. The assay can be described thus: Ex vivo proliferation assay, 72 h exposure. The format is cell-based. The note with it: Homo sapiens; NCI-H522, 72 h of exposure; read-out: 3424 IC50. The method, then: as §1, §2
Assay [4] concerns NCIH2106 NSCLC cell line. The assay can be described thus: Ex vivo proliferation assay, 72 h exposure. The format is cell-based. Particulars: Homo sapiens; NCIH2106, 72 h of exposure; read-out: 3424 IC50. The procedure: as §1, §2
Assay [5] concerns NCI-H2110 NSCLC cell line. Put plainly: Ex vivo proliferation assay, 72 h exposure. The format is cell-based. The note with it: Homo sapiens; NCI-H2110, 72 h of exposure; read-out: 3424 IC50. The procedure:
as §1, §2

In assay [6] the test system is NCI-H1792 NSCLC cell line. Put plainly: Ex vivo proliferation assay, 72 h exposure. Format: cell-based. Particulars: Homo sapiens; NCI-H1792, 72 h of exposure; read-out: 3424 IC50. The method, then:
as §1, §2

Assay [7] deals with NCIH1755 NSCLC cell line. Put plainly: Ex vivo proliferation assay, 72 h exposure. The format is cell-based. Particulars: Homo sapiens, NCI-H1755; NCIH1755, 72 h of exposure; read-out: 3424 IC50. The method, then: as §1, §2
Assay [8] relates to NCI-H1944 NSCLC cell line. Put plainly: Ex vivo proliferation assay, 72 h exposure. Format: cell-based. Particulars: Homo sapiens; NCI-H1944, 72 h of exposure; read-out: 3424 IC50. The procedure:
as §1, §2

The test system of assay [9] is NCI-H2228 NSCLC cell line. The assay can be described thus: Ex vivo proliferation assay, 72 h exposure. The format is cell-based. The note with it: Homo sapiens; NCI-H2228, 72 h of exposure; read-out: 3424 IC50. The method, then: as §1, §2
In assay [10] the test system is NCI-H23 NSCLC cell line. Put plainly: Ex vivo proliferation assay, 72 h exposure. The format is cell-based. The note with it: Homo sapiens; NCI-H23, 72 h of exposure; read-out: 3424 IC50. The method, then:
as §1, §2

pIC50: −log10 of the molar value. A value given as a limit tells only on which side of the number the result lay.

A word on the pIC50: it is the IC50 on a negative log10 scale, so that one unit is a factor of ten.

In the case of `C[C@H](OP(=O)(N1CC1)N1CC1)c1ccc([N+](=O)[O-])c(Oc2cccc(C(=O)N(C)C)c2)c1` [OBI-3424], the pIC50 was less than 6.00 in [1] (Homo sapiens, cells expressing low AKR1C3); 8.60 in assay [2]; less than 6.00 in [3]; less than 6.00 in assay [4]; 8.96 in assay [5]; 8.35 in assay [6]. The pIC50 was 8.09 in assay [7], 8.64 in assay [8], 9.68 in assay [9] and less than 6.00 in assay [10]. In addition, the IC50 values entry in assay [1] (hepatocellular carcinoma cell lines with high AKR1C3 expression at both protein and RNA levels) is reported as “low nanomolar range”.
